The text below walks through data of US8703183B2 (priority 2008, dated 2014).

SMILES strings stand for the structures.

The subject of one series is Sprague Dawley rats. The format is in vivo. The settings on record: for Mortality in males: single oral dose (metformin salts 1500 mg/kg, Glycine 871.6 mg/kg), male Sprague Dawley rats; for Glucose reducing effect: single oral dose, Glycine 871.6 mg/Kg, metformin glycinate 1500 mg/kg; for Time of lowest level of glucose in blood after administration: both sexes; for Time of lowest level of glucose in blood after administration / Blood glucose level compared to females from the control group: single oral administration; for Mortality in females: single oral dose 1500 mg/kg, female Sprague Dawley rats. The procedure: . The following 14 days to administration, toxic effects were evaluated. […]; The cause to deaths was to a pronounced and fast drop in glycemia levels.

Series [1] deals with Primary cultures: hepatocytes. As to conditions: 250 mg/ml to 0.12 mg/ml, 24 and 72 hours exposure.
The test system of series [2] is Wistar rats. The settings on record: both, rat, in vivo, 28 days.
Source text: (§1) Number of animals: 50 Wistar rats, young adults 3 months of age, of both sexes, were used. Five batches with ten animals each. Four experimental groups (10 animals in each group) and a control group.
(§2) After fasting, different doses (low, medium, high, and satellite and control groups) of the product were orally administered using an orogastric tube.
(§3) • Low: 0.1 g/kg • Medium: 0.5 g/kg • High: 1.0 g/kg • Satellite 1.0 g/kg • Control: Only the carrier (Bidistilled water)
The subject of series [3] is Wistar rats. As to the kind of experiment: Subacute toxicity study at 28 days (OECD Guideline 407). The settings on record: 0.1, 0.5, 1.0 g/kg oral.
Source text: as §1, §2, §3
Series [4] has as its system Kidney origin cells: CRL 1633. As to conditions: 250 mg/ml to 0.12 mg/ml, 24 and 72 hours exposure.
Series [5] has as its system Hepatic origin cells: CCL13. The settings on record: 250 mg/ml to 0.12 mg/ml, 24 and 72 hours exposure.

Take `NCC(=O)O` [Glycine, reference compound]: in the series on Sprague Dawley rats, the Mortality in males result is “did not show mortality” and the Glucose reducing effect result is given as “did not show a marked glucose reducing affect”.

For `CN(C)C(=N)NC(=N)N` [Metformin glycinate, N,N-dimethylimidodicarbonimidic diamide glycinate], the Cytotoxicity result in series [1] is given as “not cytotoxic”. Further, the “Reversal of semi-pasty faeces during the course of the study” value with Wistar rats [2] is 9th-11th. In addition, the “Probable dose for the non-observable adverse effect (extrapolation)” value in the series with Wistar rats [2] (po) is 0.5 to 1.0 g/kg. For the same compound, the “Mortality during the 28-day study” value with Wistar rats [3] is on record as “No mortality”. Besides, in the series on Sprague Dawley rats, the “Time of lowest level of glucose in blood after administration” value was “three”; the “Blood glucose level compared to females from the control group” value was “statistically significant lower blood glucose level 15 min, 30 min and also 3 and 6 hours after”; the Mortality in females was found to be 30%; the Mortality in males entry is given as “did not show mortality”. The Glucose reducing effect entry with Sprague Dawley rats is listed as “more pronounced reduction of glucose levels”. The “Lactate level in plasma” value in the series on Sprague Dawley rats (day of oral administration, 1500 mg/kg) was “increase of lactate level in plasma”. The Cytotoxicity result in series [4] is listed as “not cytotoxic”. The Cytotoxicity entry in series [5] was “not cytotoxic”.

For the compound `CN(C)C(=N)NC(=N)N.Cl` [Metformin hydrochloride, reference compound], in the series with Sprague Dawley rats, the “Time of lowest level of glucose in blood after administration” value is “three”; the “Blood glucose level compared to females from the control group” value was “statistically lower blood glucose level 3 and 6 hours after”; the Mortality in females was 10%; the Mortality in males result was “did not show mortality”.
